These results are taken from article PMC7815808, “Enzyme and lateral flow monoclonal antibody-based immunoassays to simultaneously determine spirotetramat and spirotetramat-enol in foodstuffs” (Scientific Reports, 2021).

In data set [1] the test system is mAbs to SP and SP-enol. Kind of data set: Direct cELISA, binding of analytes and other pesticides by the generated mAbs. Also noted: species or system mouse. Particulars: other pesticides, insecticides and fungicides. The text has this: Six mouse mAbs were obtained; three were from immunogen BSA‒SPm—named SPm#23, SPm#25, and SPm#216—and three from conjugate BSA‒SPo—named SPo#227, SPo#237, and SPo#243. These antibodies contained κ light chains and were of the IgG1 isotype, except mAb SPm#25 which was IgG2a. The affinity to SP and SP-enol was studied by checkerboard cELISA in the capture antibody-coated direct format, using homologous and heterologous enzyme tracers (with the same or different hapten, respectively, than the immunizing conjugate). SP and SP-enol standards were prepared in PBS (10 mM phosphate buffer, pH 7.4, with 140 mM NaCl) and tracer solutions for the competitive step were prepared in PBS-T (PBS containing 0.05% (v/v) Tween-20). […] Tracers with linker site heterologies were not bound by the antibodies. The only exception was mAb SPm#23 which did recognize the heterologous HRP‒SPh conjugate. For this antibody, the spacer arm of hapten SPh was located at a more proximal site than that of hapten […]. The lowest IC50 value with the homologous tracer was around 3 nM for SP-enol whereas binding to SP was moderate (IC50 values were higher than 30 nM).
(§1) Concerning specificity, the two assayed immunogens (BSA‒SPm and BSA‒SPo) afforded equivalent results. […] Cross-reactivity with the main SP metabolites was studied with antibody SPm#23.
(§2) Microplates were precoated with GAM in order to immobilise the mAb. The competitive step was carried out by mixing the analyte solution or diluted sample with the enzyme tracer solution. Standard curves were built in borosilicate glass tubes from 0.03 to 30 nM by a threefold serial dilution of the most concentrated standard solution, and a blank (no analyte) was also run. Concentrated stock solutions of the analytes in anhydrous DMF were used to prepare the most concentrated standard solution—the DMF concentration was always lower than 0.1% (v/v). The complete immunoassay procedure can be found in the Supplementary Information file.
(§3) Table S1. Specificity of the
(§4) 7. Direct competitive ELISA procedure
(§5) The same protocol previously described for this format was applied.7 Briefly, plates were coated with 100 µL per well of 1 µg/mL GAM solution in carbonate‒bicarbonate buffer, pH 9.6, by overnight incubation at 4 °C. Wells were washed four times with washing solution (150 mM NaCl with 0.05% (v/v) Tween-20) after each incubation step. Then, 100 µL per well of specific mAb solution in PBS-T was added and plates were incubated at room temperature during 1 h. The competitive reaction was carried out by adding 50 µL per well of analyte solution or diluted sample and 50 µL per well of tracer […]
(§6) enzyme substrate solution (2 mg/mL o-phenylendiamine and 0.012% (v/v) H2O2 in 25 mM sodium citrate and 62 mM sodium phosphate buffer, pH 5.4). Ten minutes later, the enzyme reaction was stopped by adding 100 µL per well of 1 M H2SO4.
8. Influence of pH and ionic strength […]
(§7) 7 E. Ceballos-Alcantarilla, D. López-Puertollano, C. Agulló, A. Abad-Fuentes, A. Abad-Somovilla, J. V. Mercader.
Combined heterologies for monoclonal antibody-based immunoanalysis of fluxapyroxad. Analyst 143, 5718‒

Data set [2] deals with mAb SPm#23. Kind of data set: Antibody specificity (cross-reactivity) of the selected mAb. The class given is binding, mouse. The note with it: for CR (%): cross-reactivity of the selected mAb, SP-enol = 100, n=3. The procedure: as §1, §2, §3, §4, §5, §6
8. Influence of pH and ionic strength
Figure S5. Influence of pH and ionic strength over the Amax and IC50 values of the spirotetramat-enol standard curve of the studied direct cELISA.
as §7
Combined heterologies for monoclonal antibody-based immunoanalysis of fluxapyroxad. Analyst 143, 5718‒ […]

Data set [3] can be described thus: Spirotetramat hydrolysis study by HPLC‒MS/MS. The class given is physicochemical. Also noted: content found by HPLC–MS/MS, sample treatment A / content found by HPLC–MS/MS, sample treatment B / content found by HPLC–MS/MS, sample treatment C / content found by HPLC–MS/MS, sample treatment D: unit not given beside the values. The note with it: for content found by HPLC–MS/MS, sample treatment A: SP hydrolysed (40 mM NaOH, 10 min, room temperature); for content found by HPLC–MS/MS, sample treatment B: SP without hydrolysis; for content found by HPLC–MS/MS, sample treatment C: SP-enol hydrolysed (40 mM NaOH, 10 min, room temperature); for content found by HPLC–MS/MS, sample treatment D: SP-enol without hydrolysis. The procedure: In order to simultaneously quantify SP and SP-enol contents in a sample, an in situ procedure for treating the sample with alkaline solution in order to hydrolyse SP into SP-enol was assessed. SP and SP-enol standard solutions were prepared in MilliQ water and diluted fivefold with 40 mM NaOH. The mixtures were incubated 10 min at room temperature and diluted twofold with dilution buffer (200 mM Tris·HCl buffer, pH 8.0, containing 280 mM NaCl). For the competitive step, enzyme tracer solutions were prepared in TBS-T (100 mM Tris·HCl buffer, pH 8.0, containing 140 mM NaCl and 0.05% (v/v) Tween-20). As shown in the inset of Table 2, the obtained standard curves of SP-enol and hydrolysed SP were almost identical. This hydrolysis procedure was validated by HPLC‒MS/MS. SP and SP-enol aqueous solutions (50 µg/mL) were treated with NaOH and, 10 min later, the pH was lowered as previously described. Then, 10 µL of hydrolysed and diluted sample was transferred into 990 µL of acetonitrile and dried with anhydrous MgSO4. Controls without the hydrolysis step were also evaluated. Finally, the contents of SP, SP-enol, SP-keto, and SP-mono in the organic extracts were quantified (Table 2). […] Those samples were also analysed with the studied direct cELISA by running SP-enol standard solutions that had been incubated in NaOH and diluted with dilution buffer like the samples. […] Consequently, the developed hydrolysis procedure seemed to perform adequately for SP and SP-enol residue quantification as SP-enol equivalents.
SP, SP-enol, SP-keto, and SP-mono standard solutions were prepared by serial dilution in acetonitrile from 1 to 2500 μg/L in amber glass vials and kept at − 20 °C. The injection volume was 5 µL and the column temperature was 45 °C. The analysis was carried out using a C18 reverse phase column with a gradient of 0.2% (v/v) formic acid in water (A) and acetonitrile (B) as mobile phase at a flow rate of 0.3 mL/min. The elution profile was 0‒3 min, from 5% B to 95% B, 3.0‒3.5 min, 95% B, 3.5‒3.6 min, from 95% B to 5% B, and 3.6‒8 min, 5% B. Spectra were acquired in positive ionization multiple reaction monitoring mode with interchannel delay of 0.02 s.

The structures appear in SMILES notation. A value given as a limit tells only on which side of the number the result lay.

As to `O=C(Nc1ccccc1-c1ccc(Cl)cc1)c1cccnc1Cl` [boscalid], the “binding by the antibodies” value in data set [1] is given as “did not bind”. For `N#Cc1c[nH]cc1-c1cccc2c1OC(F)(F)O2` [fludioxonil], the “binding by the antibodies” value in data set [1] is recorded as “did not bind”. On to `CCCN(CC)CC1COC2(CCC(C(C)(C)C)CC2)O1` (centres unmarked) [spiroxamine], for which, in data set [1], the “binding by the antibodies” value was “did not bind”. As for `COC1CCC2(CC1)NC(=O)C(c1cc(C)ccc1C)=C2O[C@@H]1O[C@H](CO)[C@@H](O)[C@H](O)[C@H]1O` (some centres unmarked) [SP-glu, spirotetramat-enol-glucoside], in data set [2], the “CR (%)” value was 5.11%. The “affinity to SP-enol, times higher than to the analyte” value in data set [2] (mAb SPm#23) is ≥ 20 times. Regarding `Cc1cc(C2CC2)nc(Nc2ccccc2)n1` [cyprodinil], the “binding by the antibodies” value in data set [1] is on record as “did not bind”. Still for that read-out and setting: under `COC(=O)N(OC)c1ccccc1COc1ccn(-c2ccc(Cl)cc2)n1` [pyraclostrobin] stands “did not bind”.

For the compound `CC12CC1(C)C(=O)N(c1cc(Cl)cc(Cl)c1)C2=O` (centres unmarked) [procymidone], the “binding by the antibodies” value in data set [1] was “did not bind”. Regarding `C#CCOc1ccc(CCNC(=O)C(OCC#C)c2ccc(Cl)cc2)cc1OC` (centres unmarked) [mandipropamid], in data set [1], the “binding by the antibodies” value is given as “did not bind”. Same read-out and setting: under `CCC(C)(C)C(=O)OC1=C(c2ccc(Cl)cc2Cl)C(=O)OC12CCCCC2` [spirodiclofen] stands “did not bind”. As for `CSC1=N[C@@](C)(c2ccccc2)C(=O)N1Nc1ccccc1` [fenamidone], the “binding by the antibodies” value in data set [1] is “did not bind”.

With `COC1CCC2(CC1)NC(=O)C(O)(c1cc(C)ccc1C)C2=O` (centres unmarked) [SP-keto, spirotetramat-ketohydroxy], in data set [2], the “CR (%)” value stood at 0.02%. Further, in data set [2] (mAb SPm#23), the binding result is given as “almost negligible”. In data set [3], the “content found by HPLC–MS/MS, sample treatment A” value was 0.09; the “content found by HPLC–MS/MS, sample treatment B” value is given as 0.08; the “content found by HPLC–MS/MS, sample treatment C” value is 0.39; the “content found by HPLC–MS/MS, sample treatment D” value was 0.43. In the case of `CNC(=O)/C(=N/OC)c1ccccc1COc1cc(C)ccc1C` [dimoxystrobin], in data set [1], the “binding by the antibodies” value is “did not bind”. The same measure, in the same setting: under `O=[N+]([O-])NC1=NCCN1Cc1ccc(Cl)nc1` [imidacloprid] stands “did not bind”. For the compound `Oc1ccccc1-c1ccccc1` [o-phenylphenol], in data set [1], the “binding by the antibodies” value was “did not bind”. As for `Cc1cc(C)nc(Nc2ccccc2)n1` [pyrimethanil], in data set [1], the “binding by the antibodies” value is “did not bind”.

Turning to `CC1(C)[C@H](C(=O)O[C@H](C#N)c2cccc(Oc3ccccc3)c2)[C@@H]1C=C(Br)Br` [deltamethrin], the “binding by the antibodies” value in data set [1] is given as “did not bind”. `Cc1cc(C)c(C2=C(OC(=O)CC(C)(C)C)C3(CCCC3)OC2=O)c(C)c1` [spiromesifen]: the “binding by the antibodies” value in data set [1] is “did not bind”. The same measure, in the same setting: under `N#Cc1c(Cl)c(Cl)c(Cl)c(C#N)c1Cl` [chlorothalonil] stands “did not bind”; under `CCCOC(=O)NCCCN(C)C` [propamocarb], “did not bind”. `CC1(C(=O)Nc2ccc(O)c(Cl)c2Cl)CCCCC1` [fenhexamid]: in data set [1], the “binding by the antibodies” value was “did not bind”.

`c1ccc2[nH]c(-c3cscn3)nc2c1` [thiabendazole]: the “binding by the antibodies” value in data set [1] was “did not bind”. Take `COC1CCC2(CC1)NC(=O)C(c1cc(C)ccc1C)C2O` (centres unmarked) [SP-mono, spirotetramat-monohydroxy]: the “CR (%)” value in data set [2] came out at 0.19%. Also, the binding entry in data set [2] (mAb SPm#23) was “almost negligible”. Moreover, in data set [3], the “content found by HPLC–MS/MS, sample treatment A” value is given as 0.01; the “content found by HPLC–MS/MS, sample treatment B” value is reported as 0.12; the “content found by HPLC–MS/MS, sample treatment C” value amounted to 0.02; the “content found by HPLC–MS/MS, sample treatment D” value worked out at 0.02. For the compound `CC(Cc1ccc(C(C)(C)C)cc1)CN1C[C@@H](C)O[C@@H](C)C1` (some centres unmarked) [fenpropimorph], the “binding by the antibodies” value in data set [1] was “did not bind”.

On to `CO/C=C(/C(=O)OC)c1ccccc1Oc1cc(Oc2ccccc2C#N)ncn1` [azoxystrobin], for which the “binding by the antibodies” value in data set [1] is “did not bind”.
